Patent US20090024021A1, “Methods and Systems for Using Transcranial Magnetic Stimulation and Functional Brain Mapping for Examining Cortical Sensitivity, Brain Communication, and Effects of Medication” (priority 2002, published 2009)
Entries after “also recorded” stand apart in the source; their conditions may differ.

System: left prefrontal cortex
Experiment: Interleaved TMS/phMRI (BOLD fMRI) with TMS over prefrontal cortex
Assay type: in vivo, human
Settings: for Voxels, effect of LTG (between day) / Z-score, effect of LTG (between day): Prefrontal Cortex Stimulation, LTG-Placebo
Experimental: Study design: We performed a randomized, double-blind, crossover trial involving two visits at least one week apart (FIG. 8). […] Serum LTG levels, RMTs, and interleaved TMS/phMRI images during both motor and then prefrontal TMS were then gathered for each subject. One week later they received LTG or placebo again, followed by identical RMT and interleaved TMS/phMRI studies.
Combined TMS and MRI: Immediately following RMT determination, interleaved TMS/phMRI acquisitions were performed in a Picker EDGE 1.5 T MR scanner with actively shielded magnet and high-performance gradients (27 mT/m, 72 T/m/sec) using a typical gradient echo, echo planar imaging (EPI) fMRI sequence (tip angle=90, TR=3 sec, FOV 27.0 cm, fifteen 7 mm thick slices, 1 mm gap). TMS was delivered using a Dantec MagPro with a special nonferromagnetic TMS coil of figure-8 design with an 8-meter cable (Dantec Medical A/S, Skovlunde, Denmark) and a room set up identical to prior TMS/fMRI studies from our group. TMS pulses and the fMRI sequence were interleaved as described before^21. Each cycle, illustrated in FIG. 9, consisted of six 21-sec sub-cycles—four Test and two task (100% RMT stimulation and 120% RMT stimulation). During each sub-cycle, the scanner acquired seven sets of 15 transverse images. During the task sub-cycles the TMS was triggered 100 ms after every […] image acquisition to produce a TMS stimulation rate of 1 Hz. The entire TMS/fMRI sequence lasted 882 sec (14.7 min).
On each visit, immediately after the Motor Cortex MRI study, subjects were removed from the scanner and the TMS device was moved to position it over the left prefrontal cortex. The left prefrontal cortex stimulation site was defined as a location 5-cm rostral and in a parasagittal plane from the site of maximal APB stimulation. Subjects then reentered the scanner for the prefrontal TMS scan, which was identical to the Motor study described above except for the TMS coil location.
Individual fMRI Data Analyses: MR scans were transferred into ANALYZE format and then further processed on Sun workstations (Sun Microsystems, Palo Alto, Calif.). Scans were checked using MEDx3.3 (Sensor Systems Inc, Sterling, Va.) for movement across runs, and then were coregistered to a mean image using automatic image registration. […] After correction of motion, we used a delayed boxcar model, employed a high-pass filter to remove signal drift, cardiac and respiratory effects, and other low frequency artifacts. Then, we spatially transformed each subject's data into the Talairach Atlas (input voxel dimensions, 2.1×2.1×8 mm, to output voxel dimensions, 4×4×4 mm), smoothed (4×2 mm) the data and generated z map with the Statistical Parametric Mapping (SPM) 96 module in MEDx3.3. We assumed an uncorrected F threshold UF P>0.99 to preserve as many voxels as possible for the cluster analysis.
Group fMRI Data Analyses: All subject's unthresholded z maps were combined based on comparison of condition (TMS vs Rest), intensity (100% RMT-TMS vs 120% RMT-TMS), visit (LTG vs Placebo). The combined group z maps were thresholded using z≧3.09 (p≦0.001) and cluster statistical weight (spatial extent threshold) of p<0.05. We used either paired or unpaired t-tests in MEDx3.3 for all comparisons of interest and both areas of stimulation.
Magnitude of BOLD time course response: To compare the magnitudes of BOLD signal changes, two types of data were recorded. The different maps of LTG and placebo were used to make a mask of left motor cortex (82 voxels) and a mask of left hippocampus (19 voxels) (FIGS. 11A and 11B bottom panels). The masks used to define location were taken as an index of relative peak intensity above noise. According to the masks' Talairach coordinates, the mean signal intensity of the highest six contiguous voxels (two in each slice) in each subject was extracted from motor cortex or hippocampus with SPM plotting in MEDx.

Structure (SMILES): Nc1nnc(-c2cccc(Cl)c2Cl)c(N)n1 [LTG, Lamotrigine]
- number of active voxels in hippocampus, compared with placebo (100% RMT minus rest over prefrontal cortex, left hippocampus, 8 subjects, Wilcoxon p=0.04): significantly more; also recorded: significantly increased
- Z-score, region of activation (LTG day, within day, n = 8, 100% RMT-Rest, Left Hippocampus, Talairach −24,−8,−24): 3.53
- Z-score, region of activation (LTG day, within day, n = 8, 100% RMT-Rest, Left cingulated gyrus, Talairach −8,−8,28): 4.08
- Z-score, region of activation (LTG day, within day, n = 8, 100% RMT-Rest, Left middle frontal gyrus (BA 6), Talairach −32,4,60): 4.04
- Z-score, region of activation (LTG day, within day, n = 8, 100% RMT-Rest, Right hippocampus, Amygdala, Talairach 20,−8,−16): 3.66
- Z-score, region of activation (LTG day, within day, n = 8, 100% RMT-Rest, Right insula (BA 13), Talairach 52,−28,20): 4.26
- Z-score, region of activation (LTG day, within day, n = 8, 100% RMT-Rest, Right middle frontal gyrus, Talairach 40,48,16): 3.96
- Z-score, region of activation (LTG day, within day, n = 8, 100% RMT-Rest, Right postcentral gyrus (BA 3), Talairach 52,−16,40): 3.18
- Z-score, region of activation (LTG day, within day, n = 8, 100% RMT-Rest, Right precentral gyrus, Talairach 36,−4,28): 4.02
- Region of activation (LTG day, within day, n = 8, 120% RMT-100%): No activity
- Z-score, region of activation (LTG day, within day, n = 8, 120% RMT-Rest, Left cingulate gyrus, Talairach −8,4,36): 3.98
- Z-score, region of activation (LTG day, within day, n = 8, 120% RMT-Rest, Left medial frontal gyrus (BA 6), Talairach −48,44,−4): 4.15
- Z-score, region of activation (LTG day, within day, n = 8, 120% RMT-Rest, Left postcentral gyrus (BA 2), Talairach −56,−24,36): 4.12
- Z-score, region of activation (LTG day, within day, n = 8, 120% RMT-Rest, Left superior temporal gyrus, Talairach −60,4,−4): 4.14
- Z-score, region of activation (LTG day, within day, n = 8, 120% RMT-Rest, Right precentral gyrus, Talairach 52,−8,44): 4.31
- Z-score, region of activation (LTG day, within day, n = 8, 120% RMT-Rest, Right superior temporal gyrus, Talairach 56,−12,8): 4.53
- Voxels, effect of LTG (between day) (Gyrus frontal medius, Right): 35
- Z-score, effect of LTG (between day) (Gyrus frontal medius, Right, Talairach 30,25,41, p < .01): 2.83
- Voxels, effect of LTG (between day) (Hippocampus, Left): 19
- Z-score, effect of LTG (between day) (Hippocampus, Left, Talairach −25,−11,−25, p < .05): 2.26
- Voxels, effect of LTG (between day) (Insula, Right): 57
- Z-score, effect of LTG (between day) (Insula, Right, Talairach 39,13,1, p < .01): 2.83
- Voxels, effect of LTG (between day) (Postcentral gyrus, Right): 59
- Z-score, effect of LTG (between day) (Postcentral gyrus, Right, Talairach 53,−32,40, p < .01): 2.83
- Voxels, effect of LTG (between day) (Temporal lobe, Left): 112
- Z-score, effect of LTG (between day) (Temporal lobe, Left, Talairach −43,15,−25, p < .001): 3.78
- brain activity in the hippocampus and the orbital frontal gyrus, compared to placebo (formal between-day analysis, 100% RMT prefrontal stimulation vs rest, 8 subjects): increased brain activity; also recorded: increases this activity
- % BOLD signal change in left hippocampus, LTG vs placebo, entire time series (prefrontal TMS, 8 subjects, ANOVA F=1.12, p=0.326): failed to show significant differences
- % BOLD change in left hippocampus compared with placebo, TMS phase (prefrontal TMS, time points 14-17, 8 subjects, t=−2.69, p=0.009): significantly increased
